This note sets out measurements from ChEMBL document CHEMBL1201862, “PubChem BioAssay data set” (2004).

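Where inhibition never reached the appropriate level, the endpoint shown equals the highest concentration tested. Otherwise, values were interpolated linearly from a five-concentration, 48-hour dose response in 96-well plates. At the GI50, growth is halved.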 The source made the active and inactive calls. Rule as the data show it: active = GI50 up to about 1.1 µM and inactive = higher.

What all share (assay): NCI tumour cell line growth inhibition, 48 h
Assay [1] concerns SNB-75.
In assay [2] the test system is SK-MEL-2.
The subject of assay [3] is OVCAR-4.
The test system of assay [4] is CAKI-1.
Assay [5] deals with HCC 2998.
In assay [6] the test system is HT-29.
In assay [7] the test system is NCI-H23.
The subject of assay [8] is OVCAR-5.
The subject of assay [9] is HOP-62.
Assay [10] deals with M14.
Assay [11] deals with OVCAR-8.
The subject of assay [12] is MDA-N.
Assay [13] concerns COLO 205.
Assay [14] relates to T47D.
Assay [15] concerns EKVX.
For assay [16], the system named is KM12.
The test system of assay [17] is SN12C.
Assay [18] concerns TK-10.
Assay [19] relates to UACC-257.

`O=C(Nc1ccccc1)N1CCNC1=S`: the GI50 in [1] is 28.4 µM (inactive); in assay [2] it was > 100 µM (inactive); in assay [3], 71.6 µM (inactive); in [4], > 100 µM (inactive); in [5], 15.5 µM (inactive); in assay [6], > 100 µM (inactive). Also, the GI50 in assay [7], in assay [8], in assay [9], in assay [10], in [11] and in assay [12] was > 100 µM (inactive) throughout. For the same compound, the GI50 in assay [13] is > 100 µM (inactive); in [14] it was 60.1 µM (inactive); in assay [15], 53 µM (inactive); in [16], > 100 µM (inactive); in assay [17] it was > 100 µM (inactive).
As to `C=C(C)[C@H]1C[C@@H]2O[C@@](O)(/C(C)=C\C(=O)/C=C(/C)C[C@H]3OC(=O)[C@@]24O[C@H]34)[C@@H]1O`, the GI50 in assay [1], in [2], in assay [3], in assay [4], in [5] and in assay [6] was > 100 µM (inactive) in each case. The GI50 in assay [8], in assay [18], in assay [19], in [10], in assay [11] and in assay [12] was > 100 µM (inactive) throughout. Also, the GI50 in [13], in assay [14], in assay [15], in [16] and in assay [17] was > 100 µM (inactive) throughout.
In the case of `O=C(/N=N/c1ccccc1Cl)NNc1ccccc1Cl`, the GI50 in assay [1] was > 100 µM (inactive); in [2] it was 32 µM (inactive); in assay [3], 16.2 µM (inactive); in [4], 36.7 µM (inactive); in [5], 27.1 µM (inactive); in assay [6] it was 93.8 µM (inactive). In addition, the GI50 in [7] was 50 µM (inactive); in [8], 43.2 µM (inactive); in [18] it was 50.9 µM (inactive); in [19], > 100 µM (inactive); in assay [9] it was 9.48 µM (inactive); in assay [10] it was 56.8 µM (inactive). Further, the GI50 in assay [11] is 27.6 µM (inactive); in assay [12], 36.5 µM (inactive); in assay [14], 30.5 µM (inactive); in assay [17] it was 61.7 µM (inactive).
Consider `Cc1cc(C#N)c(Nc2ccccc2[N+](=O)[O-])s1`, for which the GI50 in [1] was 15.4 µM (inactive); in assay [3] it was 89.3 µM (inactive); in assay [4], 77.8 µM (inactive); in [5], 40.8 µM (inactive); in assay [7] it was 26.1 µM (inactive); in assay [8] it was 14.2 µM (inactive). Besides, the GI50 in [19] is 68.5 µM (inactive); in assay [9] it was 24.3 µM (inactive); in [10], 32.8 µM (inactive); in assay [11], 31 µM (inactive); in assay [12], 14.9 µM (inactive); in assay [13], 29.6 µM (inactive). Moreover, the GI50 in assay [14] was 36.6 µM (inactive); in assay [15], 22.3 µM (inactive); in assay [16], 36.1 µM (inactive); in assay [17], 19.2 µM (inactive).
Take `COc1cc(CNc2nc3ccccc3nc2-c2cccs2)cc(OC)c1OC`: the GI50 in [1] is > 100 µM (inactive); in [3] it was 2.84 µM (inactive); in [4] it was 11.2 µM (inactive); in assay [5], 39.1 µM (inactive); in [6], 26.9 µM (inactive); in assay [7], 14.5 µM (inactive). The GI50 is 4.19 µM (inactive) in [8]; 33.8 µM (inactive) in assay [18]; 34 µM (inactive) in assay [19]; 21.4 µM (inactive) in assay [9]; 14.3 µM (inactive) in [11]; 16.3 µM (inactive) in assay [12]. For the same compound, the GI50 was 27.4 µM (inactive) in assay [13]; 7.48 µM (inactive) in assay [14]; 29.6 µM (inactive) in assay [15]; 31.4 µM (inactive) in assay [16]; 12.9 µM (inactive) in assay [17].
For `C=CC1(C)CCC2C(=CCC3C2(C)CC(O)C(O)C3(C)COC2OC(CO)C(O)C(O)C2O)C1` (stereo unspecified), the GI50 in assay [1], in assay [2], in assay [3], in [4], in [5] and in assay [6] was > 100 µM (inactive) throughout. Also, the GI50 in assay [7], in assay [8], in [18], in assay [19], in assay [10] and in assay [11] was > 100 µM (inactive) in each case. Further, the GI50 in assay [12], in assay [13], in assay [14], in assay [15], in assay [16] and in [17] was > 100 µM (inactive) in each case.
In the case of `Nc1ccc(C2SCC(=O)N2NS(=O)(=O)c2cccc(C(=O)O)c2)cc1` (stereo unspecified), the GI50 in [1], in assay [2], in [4], in assay [5], in [6] and in [7] was > 100 µM (inactive) throughout. For the same compound, the GI50 in [8], in assay [18], in assay [19], in assay [9], in [10] and in assay [11] was > 100 µM (inactive) throughout. The GI50 was > 100 µM (inactive) in [12]; > 100 µM (inactive) in [13]; 58.3 µM (inactive) in assay [14]; > 100 µM (inactive) in [15]; > 100 µM (inactive) in [16]; > 100 µM (inactive) in assay [17].
As to `NC(=S)N1N=C2c3ccccc3CCC[C@H]2[C@@H]1c1ccccc1`, the GI50 in assay [1] is 0.211 µM (active); in [2] it was 0.236 µM (active); in assay [3] it was 5 µM (inactive); in [5] it was 1.99 µM (inactive); in assay [6], 0.867 µM (active); in [7], 1.84 µM (inactive). The GI50 was 9.57 µM (inactive) in [8]; 10.3 µM (inactive) in [18]; 2.21 µM (inactive) in [19]; 2.2 µM (inactive) in [9]; 0.315 µM (active) in assay [10]; 3.2 µM (inactive) in assay [11]. The GI50 in assay [12] was 0.0531 µM (active); in assay [13], 1.67 µM (inactive); in assay [14] it was 10 µM (inactive); in assay [15], 9.23 µM (inactive); in assay [16], 0.693 µM (active); in assay [17], 2.52 µM (inactive).
For the compound `CN(C)Cc1cc(C(=O)/C=C/c2ccc(Br)cc2)cc(CN(C)C)c1O`, the GI50 in [1] is 11.3 µM (inactive); in assay [3], 7.46 µM (inactive); in [4], 2.28 µM (inactive); in assay [5], 13.7 µM (inactive); in assay [6], 3.2 µM (inactive); in assay [7], 15.7 µM (inactive). In addition, the GI50 in [8] is 19.3 µM (inactive); in [18], 13 µM (inactive); in [19], 6.53 µM (inactive); in assay [9], 4.33 µM (inactive); in assay [10] it was 4.79 µM (inactive); in assay [11], 4.03 µM (inactive). The GI50 is 2.22 µM (inactive) in assay [12]; 1.67 µM (inactive) in assay [13]; 15.9 µM (inactive) in assay [14]; 13.2 µM (inactive) in assay [15]; 2.16 µM (inactive) in assay [16]; 2.84 µM (inactive) in assay [17].
For the compound `CCN(CC)c1ccc2cc(C(=O)Nc3cccc4ccccc34)c(=N)oc2c1`, the GI50 in [1], in [2], in assay [3], in [4], in assay [5] and in assay [6] was > 100 µM (inactive) throughout. The GI50 in assay [8] was > 100 µM (inactive); in [18] it was > 100 µM (inactive); in assay [19] it was > 100 µM (inactive); in assay [9] it was > 10 µM (inactive); in assay [10], 38.8 µM (inactive); in [11] it was > 100 µM (inactive). The GI50 in assay [12], in assay [13], in [14], in [15], in assay [16] and in assay [17] was > 100 µM (inactive) throughout.
Consider `COC(C/C(=C/CO[Si](C(C)C)(C(C)C)C(C)C)C(=O)Nc1ccccc1I)OC`, for which the GI50 in assay [1] was 88.1 µM (inactive); in assay [2], 15.2 µM (inactive); in assay [3], 63.8 µM (inactive); in assay [4] it was 22.2 µM (inactive); in [5], 16.4 µM (inactive); in assay [6], 29.6 µM (inactive). Also, the GI50 in assay [7] was 32.9 µM (inactive); in assay [8], 24 µM (inactive); in assay [18] it was 63.8 µM (inactive); in [19], 32.6 µM (inactive); in assay [9] it was 38.2 µM (inactive); in [10], 29.9 µM (inactive). Also, the GI50 in [11] was 33 µM (inactive); in assay [12], 23.2 µM (inactive); in assay [13], 9.75 µM (inactive); in assay [14] it was 30.4 µM (inactive); in [16], 31 µM (inactive); in assay [17], 26.9 µM (inactive).
